Entries after “also recorded” stand apart in the source; their conditions may differ.

This test concerns outward potassium currents. Kind of test: inside-out whole-cell patch clamp recording of outward potassium currents. In kind it is cell-based. Here is the method: These currents were elicited by a test voltage of+40 mV preceded by a 500 ms long prepulse to−110 mV from a holding potential of−70 mV. […] Current traces were obtained in 5 minute time intervals.
FIG. 14 illustrates a graph showing outward potassium currents with test compounds according to an embodiment of the invention. […] Each test increment followed a 0.5 second long hyperpolarizing prepulse to−110 mV, while keeping the membrane potential at−70 mV between pulses. In the first (left-most) plot, measurements of current were taken while the cell was bathed in a control solution. The cell was then placed in a 10 mM 4-AP bath solution, and the measurements of the second (middle) plot were recorded. The chemical called 4-AP is a pharmacological blocker of these ion channels. The cell was then washed of the 4-AP solution, and the cell was again bathed in the control solution. Measurements were recorded as in the first and second plots, and the results are shown in the third (right-most) plot. For purposes of an inside-out whole cell patch clamp measurement, the control and 4-AP baths represented the intracellular region.
FIG. 15 illustrates a graph showing potassium current amplitude (I) behavior as a function of applied membrane voltages (V) according to an embodiment of the invention. […] Here, the black square points correspond to the left-most plot in FIG. 14, the black circles correspond to the center plot of FIG. 14 showing the reduced potassium current in the presence of 10 mM 4-AP bath solution, and the white circles correspond to measurements after the 4-AP was washed away in the right-most plot of FIG. 14.
This current is approximately 50% lower than in the left and right plots, which correspond to measurements in the control solution before and after drug action, respectively.

For the compound `Nc1ccncc1` [4-AP], the “block of potassium current amplitude” value (10 mM 4-AP bath solution representing the intracellular region, first cell, FIG. 14) is reported as “about 50%”. For the same compound, the “current across the membrane relative to current in control solution” value (10 mM 4-AP bath solution, first cell, current amplitude versus membrane voltage, FIG. 15) is listed as “less than 50%”. Under “first cell, after washing and return to control solution, FIG. 14/15”, the “reversibility of the effect with wash-out perfusion” value is given as “fully (or at least substantially) reversible; also recorded: reversible process”. For the same compound, where the note is “second cell, in the presence of 4-AP, FIG. 16”, the “current lower than in control solution before and after drug action” value is listed as “approximately 50%”. The “current amplitude after washing compared with control substance” value (second cell, wash-out, FIG. 17) is given as “nearly equal”.

Values taken from patent US7465558B2, “Perfusion system and apparatus for automated multi-channel patch-clamp recordings utilizing inside-out whole-cell configuration” (Wyeth, priority 2004, dated 2008).
